These results are taken from patent US20250059182A1, “SOS1 INHIBITORS” (Mirati Therapeutics, Inc., priority 2021, published 2025).

Where two headings read alike, the source gives them in different places.

For one experiment, the system named is pERK in MKN1 cells. The experiment in a line: pERK inhibition, In-Cell Western (LI-COR Odyssey), MKN1 cells. It is filed as cell-based. The note with it: MKN1 or H358 cells (table does not say which), 0.5-1 hour incubation, read-out: IC50 (nM), pERK inhibition. As for the experimental part: This Example illustrates that exemplary compounds of the present invention prevent KRas-mediated GTP nucleotide exchange mediated by SOS1 to inhibit KRas activity thereby inhibiting the generation of the downstream effector pERK.
MKN1 cells (15,000/w) or H358 (30,000/w) were seeded in a black clear flat bottom 96-well cell culture plate (Corning, #3904) and incubated at 37° C. overnight. Assay day 1, cells were dosed with compounds of Formula (I) with a 10 μm starting concentration and serially diluted 3× for a total of 9 concentrations. The cells were incubated for approximately 0.5-1 hour with the compounds solubilized in DMSO at 37° C. Cells were immediately fixed by adding 50 μL of 4% formaldehyde to all wells in a fume hood and the plates were incubated for 20 minutes at room temperature. The formaldehyde was discarded from the plates and 150 μL of ice-cold methanol was added to permeabilize the cells for 10 minutes at −20° C. The methanol was discarded from each of the plates and any liquid remaining in the plate by tapping the plate against paper towels. Cells were then blocked with 150 μL of Odyssey blocking buffer (LI-COR Biosciences #927-50010) using 0.05% Tween for 1 hour at room temperature on a shaker. The blocking buffer was discarded and 50 μL of primary antibodies pERK (cell signaling Technology #9101L; Rabbit, 1:500) and GapDH (Millipore #MAB34; Mouse, 1:5000) diluted in Odyssey blocking buffer was added. The plates were incubated overnight at 4° C. on a shaker.
On Assay day 2, the primary antibody solution was removed. Each plate was washed 3× times with 150 μL of 1×PBST (PBS+0.1% Tween 20) and incubated with 50 μL of secondary antibodies: Anti-Rabbit (LI-COR Biosciences #926-32211) and Anti-Mouse (LI-COR Biosciences #68070) at 1:800 dilution in Odyssey blocking buffer with Tween at room temperature on a shaker for 2 hours (protected from light). The secondary antibody solution as removed and each plate was washed with PBST 3× times. Any liquid remaining was discarded and the plate was imaged using the Licor Odyssey machine according to the manufacturer's instruction, using a set focus length at 3 mm and both 800 nm and 700 nm filters. The GAPDH normalized scan values for each well were divided by the average of vehicle wells to get the % of pERK inhibition. The IC50 values were then calculated with the Graph pad Prism software.

The target in experiment [1] is T1, recombinant human SOS1 polypeptide (amino acids 560-1049) (Homo sapiens, UniProt Q07889).
T1 construct: corresponding to amino acids 560-1049, expressed in E. Coli; made in house; host or cells: E. coli
T1 sequence (Q07889 560-1049): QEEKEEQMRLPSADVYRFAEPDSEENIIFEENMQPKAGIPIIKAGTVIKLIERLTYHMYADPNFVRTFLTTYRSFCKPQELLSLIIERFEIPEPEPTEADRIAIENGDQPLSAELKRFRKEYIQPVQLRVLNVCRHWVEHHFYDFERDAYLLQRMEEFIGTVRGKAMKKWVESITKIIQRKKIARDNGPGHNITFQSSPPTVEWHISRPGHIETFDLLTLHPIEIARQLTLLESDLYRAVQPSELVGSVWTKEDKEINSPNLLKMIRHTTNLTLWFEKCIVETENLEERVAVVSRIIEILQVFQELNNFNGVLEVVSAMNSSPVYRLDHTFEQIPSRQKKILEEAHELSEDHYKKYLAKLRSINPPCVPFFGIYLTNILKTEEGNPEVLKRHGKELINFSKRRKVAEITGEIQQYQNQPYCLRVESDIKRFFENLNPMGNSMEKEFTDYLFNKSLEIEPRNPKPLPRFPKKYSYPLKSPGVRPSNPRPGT
In words: HTRF displacement assay: inhibition of labeled tracer binding to SOS1. Background: Time-resolved FRET reads energy transfer from a long-lived donor to a nearby acceptor.
Method: The ability of a compound of Formula (I) to bind to SOS1 was measured using a HTRF displacement assay. […] After a 1-hour incubation at room temperature, the HTRF signal was measured using Clairostar plate reader (BMG Labtech) according to the manufacturer's instructions. Excitation filter EX-TR was used, and emission 1 was detected at 650-610 nm and emission 2 detected at 620-610 nm. The HTRF ratio was calculated using the formula: [emission 1/emission 2]*10000.
Background signals were calculated from well with a 10 μM inhibitor, known to inhibit 100% at that concentration. The background subtracted signals were converted to % binding relative to DMSO controls. Data were analyzed using XLFIT software (IDBS) using a Morrison equation for competitive binding and Ki's were generated compound of Formula (I).

[2] abbreviates: Table A1, Morrison equation for competitive binding.
Setting [3] is: Table A, Morrison equation for competitive binding.

As to `Cc1ccccc1[C@@H](C)Nc1nnc(C)c2cnc(N3CCOCC3)cc12` [Example P-212, (R)-4-methyl-7-morpholino-N-(1-(o-tolyl)ethyl)pyrido[3,4-d]pyridazin-1-amine], in the experiment on pERK in MKN1 cells (Homo sapiens, MKN-1, Table B1), the IC50 (commonly the concentration needed to halve the response being measured) came out at 894 nM. Moreover, in experiment [1] (setting [2]), the Ki – broadly, a measure of affinity in units of concentration, obtained from inhibition or displacement – was determined as 54.8 nM.
On to `Cc1c(C#N)cccc1[C@@H](C)Nc1nnc(C)c2cnc(N(C)[C@H]3CCNC3)cc12` [Example 1-51, 2-methyl-3-((R)-1-((4-methyl-7-(methyl((S)-pyrrolidin-3-yl)amino)pyrido[3,4-d]pyridazin-1-yl)amino)ethyl)benzonitrile], for which the IC50 in the experiment with pERK in MKN1 cells (Homo sapiens, MKN-1, Table B) was 275 nM. Also, in experiment [1] (setting [3]), the Ki was 0.867 nM.
For the molecule `CCN1CC[C@@H](N(C)c2cc3c(N[C@H](C)c4cccc(C#N)c4C)nnc(C)c3cn2)C1` [Example 1-88, 3-((R)-1-((7-(((R)-1-ethylpyrrolidin-3-yl)(methyl)amino)-4-methylpyrido[3,4-d]pyridazin-1-yl)amino)ethyl)-2-methylbenzonitrile], the IC50 with pERK in MKN1 cells (Homo sapiens, MKN-1, Table B) came to 35.5 nM. Further, the Ki in experiment [1] (setting [3]) stood at 1.37 nM.
In the same order, the values of `Cc1nnc(N[C@H](C)c2cc(N)cc(C(F)(F)F)c2F)c2cc(N3CC4CC(C3)O4)ccc12` [Example 1-95, N-((R)-1-(5-amino-2-fluoro-3-(trifluoromethyl)phenyl)ethyl)-7-(6-oxa-3-azabicyclo[3.1.1]heptan-3-yl)-4-methylphthalazin-1-amine] are 19.8 nM and 0.31 nM.
The corresponding values for `COCCN(C)c1cc2c(N[C@H](C)c3cccc(C#N)c3C)nnc(C)c2cn1` [Example 1-91, (R)-3-(1-((7-((2-methoxyethyl)(methyl)amino)-4-methylpyrido[3,4-d]pyridazin-1-yl)amino)ethyl)-2-methylbenzonitrile] are 225 nM and 6.07 nM.
In the same order, the values of `Cc1c(C#N)cccc1[C@@H](C)Nc1nnc(C)c2cnc(N3CCN(C)[C@@H](C)C3)cc12` [Example 1-11, 3-((R)-1-((7-((S)-3,4-dimethylpiperazin-1-yl)-4-methylpyrido[3,4-d]pyridazin-1-yl)amino)ethyl)-2-methylbenzonitrile] are 72.5 nM and 1.62 nM.
`Cc1c(C#N)cccc1[C@@H](C)Nc1nnc(C)c2cnc(N3CC4(CNC4)C3)cc12` [Example 1-10, (R)-2-methyl-3-(1-((4-methyl-7-(2,6-diazaspiro[3.3]heptan-2-yl)pyrido[3,4-d]pyridazin-1-yl)amino)ethyl)benzonitrile]: the IC50 with pERK in MKN1 cells (Homo sapiens, MKN-1, Table B) was determined as 3280 nM. For the same molecule, the Ki in experiment [1] (setting [3]) came out at 0.541 nM.
The corresponding values for `CCN1CC2(C1)CN(c1cc3c(N[C@H](C)c4cccc(C#N)c4C)nnc(C)c3cn1)C2` [Example 1-7, (R)-3-(1-((7-(6-ethyl-2,6-diazaspiro[3.3]heptan-2-yl)-4-methylpyrido[3,4-d]pyridazin-1-yl)amino)ethyl)-2-methylbenzonitrile] are 39.4 nM and 0.378 nM.
The corresponding values for `Cc1nnc(N[C@H](C)c2cccc(C(F)(F)F)c2F)c2cc(N(C)[C@H]3CCCN(C)C3)ncc12` [Example 1-85, N^1-((R)-1-(2-fluoro-3-(trifluoromethyl)phenyl)ethyl)-N^7,4-dimethyl-N^7-((S)-1-methylpiperidin-3-yl)pyrido[3,4-d]pyridazine-1,7-diamine] are 185 nM and 0.662 nM.
As for `Cc1c(C#N)cccc1[C@@H](C)Nc1nnc(C)c2cnc(N3CCC3)cc12` [Example P-224, (R)-3-(1-((7-(azetidin-1-yl)-4-methylpyrido[3,4-d]pyridazin-1-yl)amino)ethyl)-2-methylbenzonitrile], the IC50 in the experiment with pERK in MKN1 cells (Homo sapiens, MKN-1, Table B1) worked out at 41.4 nM. Moreover, the Ki in experiment [1] (setting [2]) came out at 3.62 nM.
With `Cc1nnc(N[C@H](C)c2cccc(C(F)(F)F)c2F)c2cc(N3CC4(CN(C)C4)C3)ncc12` [Example 1-23, (R)-N-(1-(2-fluoro-3-(trifluoromethyl)phenyl)ethyl)-4-methyl-7-(6-methyl-2,6-diazaspiro[3.3]heptan-2-yl)pyrido[3,4-d]pyridazin-1-amine], the IC50 in the experiment on pERK in MKN1 cells (Homo sapiens, MKN-1, Table B) was 59.1 nM. The Ki in experiment [1] (setting [3]) was 0.21 nM.
With `Cc1nnc(N[C@H](C)c2cccc(C(F)F)c2F)c2cc(N3CCC34CNC4)ncc12` [Example P-237, (R)-N-(1-(3-(difluoromethyl)-2-fluorophenyl)ethyl)-4-methyl-7-(1,6-diazaspiro[3.3]heptan-1-yl)pyrido[3,4-d]pyridazin-1-amine], in the experiment with pERK in MKN1 cells (Homo sapiens, MKN-1, Table B1), the IC50 is 182 nM. Moreover, the inhibition constant Ki in experiment [1] (setting [2]) came out at 0.515 nM.
In the case of `CCN1CCN(c2cc3c(N[C@H](C)c4cccc(C#N)c4C)nnc(C)c3cn2)[C@@H](C)C1` [Example 1-14, 3-((R)-1-((7-((S)-4-ethyl-2-methylpiperazin-1-yl)-4-methylpyrido[3,4-d]pyridazin-1-yl)amino)ethyl)-2-methylbenzonitrile], the IC50 in the experiment with pERK in MKN1 cells (Homo sapiens, MKN-1, Table B) was found to be 53.9 nM. In addition, the Ki in experiment [1] (setting [3]) worked out at 0.788 nM.
With `Cc1nnc(N[C@H](C)c2cccc(C(F)(F)F)c2F)c2cc(N(C)C3CCN(C)CC3)c(F)cc12` [Example 4-23, (R)-6-fluoro-N^1-(1-(2-fluoro-3-(trifluoromethyl)phenyl)ethyl)-N^7,4-dimethyl-N^7-(1-methylpiperidin-4-yl)phthalazine-1,7-diamine], the IC50 with pERK in MKN1 cells (Homo sapiens, MKN-1, Table B) was found to be 25 nM. Further, in experiment [1] (setting [3]), the Ki was determined as 1.2 nM.
Consider `Cc1c(C#N)cccc1[C@@H](C)Nc1nnc(C)c2cnc(N3C[C@H]4[C@@H]3CCN4C)cc12` (single isomer, unassigned) [Example 6-9], for which, in the experiment with pERK in MKN1 cells (Table B), the IC50 stood at 69.4 nM. Also, in experiment [1] (setting [3]), the Ki stood at 2.12 nM.
As to `CO[C@H]1CCN(c2cc3c(N[C@H](C)c4cccc(C#N)c4C)nnc(C)c3cn2)C1` [Example 1-48, 3-((R)-1-((7-((S)-3-methoxypyrrolidin-1-yl)-4-methylpyrido[3,4-d]pyridazin-1-yl)amino)ethyl)-2-methylbenzonitrile], in the experiment with pERK in MKN1 cells (Homo sapiens, MKN-1, Table B), the 50% inhibitory concentration (IC50) is 39.2 nM. Moreover, in experiment [1] (setting [3]), the Ki is 2.02 nM.
The corresponding values for `Cc1c([C@@H](C)Nc2nnc(C)c3cnc(N4CCN(C)CC4)cc23)cc(N)nc1C(F)(F)F` [Example 1-102, (R)-N-(1-(6-amino-3-methyl-2-(trifluoromethyl)pyridin-4-yl)ethyl)-4-methyl-7-(4-methylpiperazin-1-yl)pyrido[3,4-d]pyridazin-1-amine] are 37 nM and 2.18 nM.
In the same order, the values of `Cc1c(C#N)cccc1[C@@H](C)Nc1nnc(C)c2cc(F)c(N3CCS(=O)(=O)CC3)cc12` [Example 4-19, (R)-3-(1-((7-(1,1-dioxidothiomorpholino)-6-fluoro-4-methylphthalazin-1-yl)amino)ethyl)-2-methylbenzonitrile] are 551 nM and 3.53 nM.
The corresponding values for `Cc1c(C#N)cccc1[C@@H](C)Nc1nnc(C)c2cnc(N(C)[C@H]3CCOC3)cc12` [Example 1-71, 2-methyl-3-((R)-1-((4-methyl-7-(methyl((S)-tetrahydrofuran-3-yl)amino)pyrido[3,4-d]pyridazin-1-yl)amino)ethyl)benzonitrile] are 47.3 nM and 4.69 nM.
For `Cc1nnc(N[C@H](C)c2cccc(C(C)(F)F)c2F)c2cc(N(C)[C@H]3CCN(C)C3)ncc12` [Example P-200, N1-((R)-1-(3-(1,1-difluoroethyl)-2-fluorophenyl)ethyl)-N7,4-dimethyl-N7-((S)-1-methylpyrrolidin-3-yl)pyrido[3,4-d]pyridazine-1,7-diamine], in the experiment on pERK in MKN1 cells (Homo sapiens, MKN-1, Table B1), the IC50 stood at 6.77 nM. Besides, in experiment [1] (setting [2]), the Ki was 0.517 nM.
